Measured values taken from PMC12030062, “From In Vitro Cytotoxicity to In Vivo Zebrafish Assays: A Study on 3,3-Dichloro β-, γ- and δ-Lactams and Their Biological Activity Profiles” (Pharmaceuticals, 2025).
Converted amounts (≈) assume the structure as drawn. Like-named read-outs stand apart in the source and are kept apart here.

Key:
[1] = tested on: A431 cell line (squamous cell carcinoma); test: Cell viability, MTT assay, A431; format: cell-based; conditions: for IC50: Homo sapiens; for SI250, pseudo-selectivity index (MTT): 250 µg/mL, 24 h, A431 vs 3T3, MTT; for selective cytotoxicity, A431 in comparison with 3T3 cells: lower IC50 for A431 than 3T3; for SI (MTT), selectivity index: SI = IC50 (3T3)/IC50 (A431)
Protocol: (§1) Two different endpoints, 3-(4,5-dimethyl-2-thiazolyl)-2,5-diphenyltetrazolium bromide (MTT) and neutral red uptake (NRU), were used to assess differences in cell-induced cytotoxicity. […] In addition, NRU evaluates the interaction of these drugs with the plasmatic membrane. Cell responses were determined from the MTT [16] and NRU [17] assays, using the two proposed cell lines. Cytotoxicity assays were performed at concentrations equal to 80 and 250 µg/mL. The IC50 value, referring to the half-maximal inhibitory concentration, was determined as a key parameter in cytotoxicity studies (Table 1). It plays a crucial role in evaluating cell viability and assessing cellular responses to various drugs or toxins. For cases where IC50 values were below 80 µg/mL, additional studies at lower concentrations were conducted to accurately determine these values. […] The selectivity index (SI), used as a measurement of action against the tumor cell line in comparison with a normal cell line, was also included.
(§2) • In Vitro Assay Using Human Erythrocytes • - Acquisition and Extraction of the Erythrocytes Human blood samples were obtained from the Banc de Sang i Teixits de Barcelona (Spain) from the Catalan Department of Health. Blood was deposited in tubes with the anticoagulant EDTA-K3. Blood samples were centrifuged at 3000 rpm and 4 °C for 10 min (Megafuge 2.0 R. Heraeus Instruments, Hanau, Germany) to induce sedimentation. Plasma was extracted with a Pasteur pipette. Next, the residual pellet was washed with PBS at pH 7.4. This procedure was repeated three times to remove residual leukocytes and platelets and to concentrate the erythrocytes. Following the last wash, the erythrocyte suspension was diluted (1:1) in PBS at pH 7.4 to obtain a suitable erythrocyte suspension (cell density of 8 × 10^9 cell/mL). • - Hemolysis Assay The hemolysis assay determined the capability of different compounds to induce the hemolysis of the erythrocyte membrane. Stock solutions of each compound at 1 mg/mL in PBS at pH 7.4 were prepared. Different volumes (10–80 μL) were placed in polystyrene tubes, and an aliquot of 25 µL of the erythrocyte suspensions was added to each tube. The final volume was 1 mL. The tubes were incubated at room temperature under rotatory conditions. Then, the tubes were centrifuged at 10,000 rpm for 5 min. The supernatants’ absorbance at 540 nm (Shimadzu UV-160A, Shimadzu, Duisburg, Germany) was compared with that of the positive (erythrocytes hemolyzed with distilled water) and negative (erythrocyte suspension in PBS at pH 7.4) controls. The degree of hemolysis was determined using the following equation: Hemolysis (%) = 100 × (Abs − Abs0)/(Abs100 − Abs0) where Abs, Abs0, and Abs100 are the absorbance of the test samples, of the suspension treated with isotonic phosphate–buffered saline (PBS), and of the suspension of complete hemolysis treated with distilled water, respectively. • In Vitro Essay Using Cell Cultures The murine Swiss albino fibroblasts (3T3) and the squamous cell carcinoma (A431) cell lines were obtained from Celltec UB. Cells were grown in DMEM medium (4.5 g/L glucose) supplemented with 10% (v/v) FBS, 2 mM L-glutamine, 100 U/mL penicillin, and 100 µg/mL streptomycin at 37 °C with 5% CO2. Cells were routinely cultured in 75 cm^2 culture flasks and were trypsinized using trypsin–EDTA when the cells reached approximately 80% confluence. The trypan blue assay, which allows for the direct identification and enumeration of the live (unstained) and dead (blue) cells in the cell population, was used to evaluate the viability of the cells in the cell suspension obtained. • - Cell Viability Assays Cell lines of 3T3 (1 × 10^5 cells/mL) and A431 (5 × 10^4 cells/mL) were grown at defined densities in the 60 central wells of a 96-well plate. The cells were incubated for 24 h in 5% CO2 at 37 °C. […]

[2] = tested on: murine Swiss albino fibroblast (3T3) cell line; test: Cell viability, MTT assay, 3T3; format: cell-based; conditions: Mus musculus, 24 h, 24 h incubation, MTT endpoint
Protocol: as §1, §2

human erythrocytes = test: Hemolysis assay with human erythrocytes; format: cell-based; conditions: from 10 to 80 µg/mL
Protocol: (§3) In this context, non-hemolytic compounds are essential, as they enhance the safety and efficacy of lactam-based drugs by reducing adverse effects while maintaining their antitumor activity. In accordance with EU regulations (ISO 10993-4), the assessment of the biological compatibility of new compounds that may come into contact with the blood necessitates in vitro hemocompatibility evaluations. In this study, the extent of hemolysis induced by the different compounds was assessed by incubating them with an erythrocyte suspension. The hemolytic response of compounds 1–10 was evaluated at two concentrations (10 and 80 µg/mL), the results of which are presented in Figure 3.
as §2, with “°C. Then, the spent medium was removed, and the cells were incubated for 24 h, with their corresponding compound solutions (1 mg/mL) previously diluted in a minimum amount of DMF (dimethylformamide) and then in DMEM medium supplemented with 5% FBS (100 µL) at the required concentration range (80 or 250 µg/mL).” for “°C.”

[3] = tested on: A431 cell line (squamous cell carcinoma); test: Cell viability, NRU assay, A431; format: cell-based, human; conditions: for SI250, pseudo-selectivity index (NRU): 250 µg/mL, 24 h, A431 vs 3T3, NRU; for IC50: Homo sapiens, A-431, 24 h, 24 h incubation, NRU endpoint, A431
Protocol: as §1, §2

[4] = tested on: murine Swiss albino fibroblast (3T3) cell line; test: Cell viability, NRU assay, 3T3; format: cell-based; conditions: Mus musculus, 24 h incubation, NRU endpoint
Protocol: as §1, §2

[5] = Hemolysis assay with human erythrocytes; format: cell-based; conditions: human, washed human erythrocyte suspension, pH 7.4, read-out: degree of hemolysis
Protocol: as §3
as §2, with “°C. Then, the spent medium was removed, and the cells were incubated for 24 h, with their corresponding compound solutions (1 mg/mL) previously diluted in a minimum amount of DMF (dimethylformamide) and then in DMEM medium supplemented with 5% FBS (100 µL) at the required concentration range (80 or 250 µg/mL).” for “°C.”

Zebrafish = conditions: cited from earlier work
[6] = tested on: squamous carcinoma cells (A431) in comparison with the fibroblast (3T3) cell line; set-up: method as in PMID 38731527; conditions: cited from earlier work
[7] = A-431, 24 h, 24 h incubation, MTT endpoint, A431, read-out: IC50 (MTT) A431
[8] = A-431, A431 and 3T3, MTT and NRU, summarised in text, read-out: IC50 values

| SMILES | IC50 [1, 7] [mg/L] | IC50 [2] [mg/L] | change of hemolytic response as concentration increased (human erythrocytes) | SI250, pseudo-selectivity index (NRU) [3] | IC50 [3] [mg/L] | IC50 [4] [mg/L] | SI250, pseudo-selectivity index (MTT) [1] | selective cytotoxicity, A431 in comparison with 3T3 cells [1] | hemolysis at 10 µg/mL [5] [%] | hemolysis at 80 µg/mL ([5]; 80 µg/mL) [%] | acute toxicity (Zebrafish; Zebrafish embryos) [µg/mL] | IC50 [1, 8] [mg/L] | SI (MTT), selectivity index [1] | acute toxicity (Zebrafish; Zebrafish) [µg/mL] | SI (NRU), selectivity index ([3]; SI = IC50 (3T3)/IC50 (A431), NRU) | IC50 (lowest values among five products) [6] [mg/L] |
| --- | --- | --- | --- | --- | --- | --- | --- | --- | --- | --- | --- | --- | --- | --- | --- | --- |
| CC1CN(C2CCC(=O)CC2)C(=O)C1(Cl)Cl (stereo not shown) [Compound 6] | > 250 | > 250 | remained stable | highest SI250 values | > 250 | > 250 |  |  |  |  |  |  |  |  |  |  |
| CC1CN(C(C)(C)C)C(=O)C1(Cl)Cl (stereo not shown) [Compound 4] | > 250 | > 250 | remained stable |  | > 250 | > 250 |  |  |  |  |  |  |  |  |  |  |
| CC1CCN(C(C)(C)C)C(=O)C1(Cl)Cl (stereo not shown) [Compound 9] | 242.9 ± 1.78 (≈ 1020 µM) | > 250 | fivefold |  | > 250 | > 250 | above 1.5 | some selective cytotoxicity | 0.1 | ~0.7 |  |  |  |  |  |  |
| COc1cccc2c1C(=O)c1c(O)c3c(c(O)c1C2=O)C[C@@](O)(C(=O)CO)C[C@@H]3O[C@H]1C[C@H](N)[C@H](O)[C@H](C)O1 [doxorubicin] |  |  |  |  |  |  |  |  |  |  | 5.6 |  |  |  |  |  |
| CC(C)(C)N1C(=O)[C@@H](Cl)[C@@H]2CCCC[C@@H]21 [Compound 8] | 250 ± 1.78 (≈ 1090 µM) | > 250 | doubled |  | > 250 | > 250 |  |  | 0.1 |  |  | > 250 | >1.0 |  |  |  |
| C=C(Br)CN1CC(C)C(Cl)(Cl)C1=O (stereo not shown) [Compound 5] | 250 ± 1.32 (≈ 871 µM) | > 250 |  |  | > 250 | 250 (≈ 871 µM) |  |  |  |  |  | > 250 |  |  |  |  |
| CC(C)(C)N1C(=O)[C@@H](Cl)[C@@H]2[C@H](Cl)CCC[C@@H]21 [Compound 3] | 250 ± 2.11 (≈ 946 µM) | 183 ± 3.11 (≈ 694 µM) | doubled | highest SI250 values | > 250 | > 250 |  |  | 0.1 |  |  |  |  |  |  |  |
| CC(=O)O[C@H]1C(=O)[C@@]2(C)[C@H]([C@H](OC(=O)c3ccccc3)[C@]3(O)C[C@H](OC(=O)[C@H](O)[C@@H](NC(=O)c4ccccc4)c4ccccc4)C(C)=C1C3(C)C)[C@]1(OC(C)=O)CO[C@@H]1C[C@@H]2O [taxol] |  |  |  |  |  |  |  |  |  |  |  |  |  | 1.05 |  |  |
| O=C1N(Cc2ccccc2)[C@H]2CCC[C@H](C2)C1(Cl)Cl [Compound 10] | 238.3 ± 1.56 (≈ 799 µM) | > 250 | remained stable | highest SI250 values | > 250 | > 250 |  | some selective cytotoxicity | 0.02 |  |  |  |  |  |  |  |
| CC(C)(C)N1CC(CCl)C(Cl)(Cl)C1=O (stereo not shown) [Compound 2] | > 250 | > 250 | three- | highest SI250 values | 232 ± 4.23 (≈ 896 µM) | > 250 |  |  | 0.02 |  |  |  |  |  | >1.08 | 100 to 250 |
| CC(C)(C)N1CC(C)(C)C(Cl)(Cl)C1=O [Compound 7] | 230 ± 2.54 (≈ 967 µM) | > 250 | remained stable |  | > 250 | > 250 | above 1.5 | some selective cytotoxicity |  |  |  |  | >1.08 |  |  |  |
